# Assays:
# [1] = system: T2-B7 targets loaded with peptide; experiment: CTL induction in vivo in HLA-B*0702 transgenic mice, Cr51 cytotoxic assay; conditions: for Immunogenicity: X mice developed a specific response for a total of Y mice vaccinated, 100 μg peptide subcutaneously in IFA; for Native peptide cross recognition, MAGE-A A / Native peptide cross recognition, MAGE-A I / Native peptide cross recognition, MAGE-A V: X/Y mice; for Native peptide cross recognition, MAGE-A A: CTL tested against T2-B7 targets loaded with native peptide MAGE-A A; for Native peptide cross recognition, MAGE-A I: CTL tested against T2-B7 targets loaded with native peptide MAGE-A I; for Native peptide cross recognition, MAGE-A V: CTL tested against T2-B7 targets loaded with native peptide MAGE-A V; for Cross recognition of the native peptides by induced CTLs (in words): target cells loaded with native cryptic peptides; for Immunogenicity (in words): vaccinated HLA-B*0702 transgenic mice
# Description: The HLA-B7 H-2 class-I knockout mice were previously described (Rohrlich et al., 2003).
# CTL Induction In Vivo in HLA-B*0702 Transgenic Mice.
# Mice were injected subcutaneously with 100 μg of peptide emulsified in Incomplete Freund's Adjuvant (IFA) in the presence of 150 μg of the I-A^b restricted HBVcore128 T helper epitope (TPPAYRPPNAPIL, SEQ ID NO: 173). After 11 days, 5×10^7 spleen cells were stimulated in vitro with peptide (10 μM). On day 6 of culture, the bulk responder populations were tested for specific cytotoxicity.
# Targets were labelled with 100 μCi of Cr^51 for 60 min, plated in 96-well V-bottomed plates (3×10^3 cell/well in 100 μL of RPMI 1640 medium) and, when necessary, pulsed with peptides (1 μM) at 37° C. for 2 hours. Effectors were then added in the wells and incubated at 37° C. for 4 hours. Percentage of specific lysis was determined as: % Lysis=(Experimental Release−Spontaneous Release)/(Maximal Release−Spontaneous Release)×100.
# HLA-B*0702 = molecular target: T1, HLA-B*0702 (Homo sapiens, UniProt P01889); experiment: Measurement of peptide relative affinity to HLA-B*0702 (T2-B7 cells, ME-1 mAb staining); format: binding; conditions: for RA (Relative Affinity to HLA-B*0702): concentration inducing 20% of HLA-B*0702 expression relative to reference peptide CMV265-274, T2-B7 cells, 16 hours, 37° C.
# T1 construct: expressed in transfected cells; host or cells: human T2-B7 cells (T2 transfected with HLA-B*0702)
# Description: Measurement of Peptide Relative Affinity to HLA-B*0702.
# The protocol used has been described previously (Rohrlich et al., 2003). Briefly, T2-B7 cells were incubated at 37° C. for 16 hours with peptides concentrations ranging from 100 μM to 0.1 μM, and then stained with ME-1 monoclonal antibody (mAb) to quantify the surface expression of HLA-B*0702. For each peptide concentration, the HLA-B*0702 specific staining was calculated as the percentage of staining obtained with 100 μM of the reference peptide CMV265-274 (R10V; RPHERNGFTV, SEQ ID NO: 172). The relative affinity (RA) was determined as: RA=(Concentration of each peptide that induces 20% of HLA-B*0702-expression/Concentration of the reference peptide that induces 20% of HLA-B*0702 expression).
Sequence,Immunogenicity [1],"Native peptide cross recognition, MAGE-A A [1]","Native peptide cross recognition, MAGE-A I [1]","Native peptide cross recognition, MAGE-A V [1]",Cross recognition of the native peptides by induced CTLs (in words) [1],Immunogenicity (in words) [1],Binding to HLA-B*0702 molecules (in words) (HLA-B*0702),RA (Relative Affinity to HLA-B*0702) (HLA-B*0702)
APRALVETL (MAGE-A A1L9 peptide),6/11,MAGE-A A (1/8),MAGE-A I (0/3),MAGE-A V (0/3),not able to cross-recognize the native peptides,immunogenic,able to bind to MHC,+ ((+) 5 < RA < 10)
GPRALAETS (HLA-B7 restricted native peptide) [MAGE-A A],,,,,,,,− ((−) means RA > 10)
GPRALIETS (HLA-B7 restricted native peptide) [MAGE-A I],,,,,,,,− ((−) means RA > 10)
GPRALVETL (HLA-B7 restricted optimized peptide) [MAGE-A L9],18/18,MAGE-A A (3/8),MAGE-A I (3/5),MAGE-A V (4/5),able to recognize a target cell loaded with each of the native cryptic peptides,strongly immunogenic,,
GPRALVETS (HLA-B7 restricted native peptide) [MAGE-A V],,,,,,,,− ((−) means RA > 10)

# Reference: patent publication US10024868B2, “Identification, optimization and use of shared HLA-B*0702 epitopes for immunotherapy” (Vaxon Biotech, priority 2009, dated 2018)
